Experimental data: patent publication US20120225019A1, “Dual Fluorescence Assay For Determining Viability Of Parasitic Or Non-Parasitic Worms” (priority 2009, published 2012)
Entries after “also recorded” stand apart in the source; their conditions may differ. Structures can show the parent of a compound that is named as a salt.

How the values were obtained:
[1] = system: Schistosoma mansoni schistosomula; assay: dual-fluorescence (PI/FDA) schistosomula viability assay; type: cell-based; conditions: 10 μM, 24 hr
Description: Schistosoma mansoni (Puerto Rican strain) infected Biomphalaria glabrata snails were provided by Fred Lewis (Biomedical Research Institute, Rockville, Md., USA). Cercariae were shed from infected snails by exposure to light (60 min at room temperature, RT) and subsequently converted to schistosomula by mechanical transformation (Colley D G, Wikel S K (1974) Schistosoma mansoni: simplified method for the production of schistosomules. Experimental Parasitology 35: 44-51). Schistosomula were purified away from cercarial tails by centrifugation through a 60% percoll gradient (Lazdins J K, Stein M J, David J R, Sher A (1982) Schistosoma mansoni: rapid isolation and purification of schistosomula of different developmental stages by centrifugation on discontinuous density gradients of Percoli. Experimental Parasitology 53: 39).
Microscope examination was used to assess the quantity and quality of purified schistosomula. Schistosomula were cultured at 37° C. in T25 tissue culture flasks containing 9 ml DMEM (Dulbecco's Modified Eagle Medium, Sigma-Aldrich), lacking phenol red but containing 4500 mg/I glucose, supplemented with 10% foetal calf serum, 2 mM L-glutamine, 200 U/ml penicillin, 200 μg/ml streptomycin (all Sigma-Aldrich) in an atmosphere of 5% CO2 for 24 hr before any further experimental manipulations proceeded. Negligible parasite death occurred in this media during the 24 hr culturing period. Following this, schistosomula were aliquoted into black-sided, flat-bottom (optically clear), 96-well microtiter plates (Fisher Scientific) in 200 μl media or black-sided, flat-bottom (optically clear), 384-well microtiter plates (Matrix) in 40 μl media.
Stock solutions of all compounds were made up at 1 mM in appropriate solvents and stored at −80° C. All compounds were added to black-sided, flat-bottom (optically clear), 96-well microtiter plates containing schistosomula (1000 parasites/well in triplicate) at 10 μM concentrations. Schistosomula were cultured (as already indicated; 37° C., 5% CO2) in the presence of each compound for 24 hr before viability levels were assessed.
After the 24 hr culturing period in the presence of test compounds, and prior to addition of fluorescent dyes, all schistosomula were washed three times to remove test compound and culture media supplements. Each wash consisted of centrifuging microtiter plates containing schistosomula at 100×g for 5 min, removal of half the old culture media and replacement with an equal quantity of fresh DMEM (lacking phenol red). After washing the parasites, […] and FDA were simultaneously added to each well of the microtiter plate to obtain a final concentration of 2.0 μg/ml and 0.5 μg/ml respectively.
The 96-well microtiter plates, now containing fluorescently labeled parasites, were subsequently loaded into a BMG Labtech Polarstar Omega plate reader containing appropriate filters for the simultaneous detection of PI (544 nm excitation/620 nm emission) and FDA (485 nm excitation/520 nm emission). All fluorescent values were obtained with the plate reader incubator set at 37° C. to ensure efficient esterase conversion of FDA to fluorescein within live schistosomula. The plate reader automatically sets the photo multiplier tube (PMT) gain for each fluorescent dye and this may slightly vary between experiments. Inclusion of appropriate control samples (live and dead schistosomula) compensates for any inter-plate variations in gain settings.
All data were exported into Microsoft Excel for organization and into Minitab (Version 14) for statistical analyses. A One-Way Analysis of Variance (ANOVA) followed by post hoc testing with Fisher's least significant difference (LSD) was used to detect statistical differences between treatments. […].
Numbers of live and dead schistosomula in each well of a microtiter plate were calculated using the following equations: […]

schistosomula = conditions: previously published activities; cited from earlier work
[2] = system: Haemonchus contortus L3 larvae; assay: Haemonchus contortus FTIR; type: cell-based; conditions: worm samples; 3 mg/ml in DMSO added at 1/100; 24 hours at 37° C.
Description: 1. Haemonchus contortus L3 larvae were exsheated in 5% sodium hypochlorite for 10 minutes.
2. Following exsheathment the larvae were pelleted by centrifugation at 200×g for 2 minutes, the supernatant was removed and replaced with 1×PBS. This wash step was repeated twice to remove any traces of sodium hypochlorite then resuspended in DMEM containing L-glutamine and pen-strep but lacking in phenol red.
3. The larvae were aliquoted into a 384 well plate at approx. 100 larvae per well.
4. Compounds to be tested (aldicarb, levamisole and ivermectin) were made up at 3 mg/ml in DMSO then added to test wells at 1/100.
5. An identical quantity of DMSO, lacking any compound, was added to control wells.
6. The larvae were cultured for 24 hours at 37° C. following the addition of compounds (see FIG. 11). Wells containing media and compounds, but lacking in larvae, were also set up as controls for background.
For FTIR, two samples were run from each well containing larvae. The first consisted of 10 μl of supernatant taken from the top of the well without any disturbance. The second consisted of 10 μl containing worms and any sediment stirred up from the bottom of the well. A third 10 μl sample of media containing compounds but no larvae was also run for elimination of drug chemistry. Samples were dried at 50° C. for 45 minutes to prevent interference from water before being loaded into the FTIR machine.
Collected spectra were analysed using PyChem software. Two analyses were run for all data: principle components analysis (PCA; which compresses all of the data into smaller, discreet (2) components without there being any assumptions made) and discriminate function analysis (DFA; which takes information provided about class structure to run an algorithm to maximise distances between groups (different drug treatments) and minimise distances within groups (replicates of the same drug treatment)). The circles on the DFA graphs represent mean group centres i.e. treatments that segregate with confidence intervals of 95% (inner circle) and 99% (outer circle).

[3] = system: Schistosoma mansoni schistosomula; assay: microscopic examination of compound-treated schistosomula; type: cell-based; conditions: 24 hr
Description: Live and heat killed schistosomula stained with optimal concentrations (empirically derived from Jones K, Senft J (1985) An improved method to determine cell viability by simultaneous staining with fluorescein diacetate-propidium iodide. The Journal of Histochemistry and Cytochemistry 33: 77-79) of propidium iodide (PI, 2.0 μg/ml; Sigma-Aldrich), fluorescein diacetate (FDA, 0.5 μg/ml; Sigma-Aldrich) or both fluorophores were visualized at ×100 magnification using a Leica Axioplan microscope equipped with FITC (494 excitation) and Rhodamine (536 excitation) filters and a mercury vapor light source. A Hamamatsu CA74295 camera with Wasabi Version 1.4 software was used to capture photographic images of stained schistosomula.
Schistosomula, co-incubated with test compounds, were fluorescently visualized as above or unstained at ×100 magnification using an Olympus CK2 inverted microscope equipped with a stage extension plate and specimen holder for handling microtiter plates. A Kodak EasyShare DX7440 digital camera was used to capture images of unstained schistosomula.

[4] = system: in vitro cultured, mechanically-transformed schistosomula; conditions: 10 μM, 24 hr after treatment; cited from earlier work
[5] = system: Schistosoma mansoni schistosomula; assay: dual-fluorescence (PI/FDA) schistosomula viability assay; type: cell-based

Compound	schistosomula viability by dual-fluorescent viability assay [1]	previously described effect on schistosomula phenotype (schistosomula)	also measured
COC(=O)[C@H]1[C@H]2C[C@@H]3c4[nH]c5cc(OC)ccc5c4CCN3C[C@H]2C[C@@H](OC(=O)/C=C/c2cc(OC)c(OC)c(OC)c2)[C@@H]1OC [rescinnamine]	none showed strong decreases in viability	–	–
CNCCC(Oc1ccc(C(F)(F)F)cc1)c1ccccc1 (stereo not shown) [fluoxetine hydrochloride]	did not affect schistosomula viability	induce schistosomula over-activity	–
CNC(=O)O/N=C/C(C)(C)SC [aldicarb]	–	–	FTIR separation of treatment from DMSO control, worms [2]: good separation
ivermectin	–	–	FTIR separation of treatment from DMSO control, worms [2]: good separation
CN(C)CCCN1c2ccccc2Sc2ccc(Cl)cc21 [chlorpromazine hydrochloride]	did not affect schistosomula viability	induce schistosomula over-activity	–
CC(C)=CCC[C@]1(C)C=Cc2c(O)c3c(c(CC=C(C)C)c2O1)O[C@]12C(=C[C@@H]4C[C@H]1C(C)(C)O[C@@]2(C/C=C(/C)C(=O)O)C4=O)C3=O [gambogic acid]	induced measurable death	induce schistosomula mortality	–
Clc1ccc(COC(Cn2ccnc2)c2ccc(Cl)cc2Cl)c(Cl)c1 (stereo not shown) [miconazole nitrate]	did not affect schistosomula viability	shape alteration (‘rounded’ phenotype)	–
Cc1cc(C2CCCCC2)n(O)c(=O)c1 [ciclopirox]	none showed strong decreases in viability	–	schistosomula phenotype by microscopic examination ([3]; 10 μM): shape alterations in schistosomula phenotype
c1ccc([C@H]2CN3CCSC3=N2)cc1 [levamisole]	–	–	FTIR separation of treatment from DMSO control, worms [2]: good separation
CC[C@@H](C(=O)[C@@H](C)[C@@H](O)[C@H](C)[C@@H]1O[C@@H]([C@@H](CC)C(=O)O)CC[C@@H]1C)[C@H]1O[C@]2(C=C[C@@H](O)[C@]3(CC[C@@](C)([C@H]4CC[C@](O)(CC)[C@H](C)O4)O3)O2)[C@H](C)C[C@@H]1C [sodium salinomycin]	fluorescent viability measurements similar to those derived from untreated parasites	induce schistosomula mortality	schistosomula phenotype by microscopic examination ([3]; 10 μM): strongly FDA positive (with some PI positive cells) (FIG. 6C), dark and granular (FIG. 6H), but motile
O=C(C1CCCCC1)N1CC(=O)N2CCc3ccccc3C2C1 (stereo not shown) [praziquantel]	did not affect schistosomula viability; also recorded: does not kill in vitro	shape alteration (‘rounded’ phenotype)	schistosomula phenotype by microscopic examination ([3]; 10 μM): strong rounded phenotype
C[C@@H]1[C@H](O)[C@@H](C)/C=C/C=C/C=C/C=C/C=C/C=C/C=C/[C@H](O[C@@H]2O[C@H](C)[C@@H](O)[C@H](N)[C@@H]2O)C[C@@H]2O[C@](O)(C[C@@H](O)C[C@@H](O)[C@H](O)CC[C@@H](O)C[C@@H](O)CC(=O)O[C@H]1C)C[C@H](O)[C@H]2C(=O)O [amphotericin b]	induced measurable death	induce schistosomula mortality	–
O=C(Nc1ccc([N+](=O)[O-])cc1Cl)c1cc(Cl)ccc1O [niclosamide]	fluorescent viability measurements similar to those derived from untreated parasites	induce schistosomula mortality	–
Nc1[nH]c(=O)ncc1F [flucytosine]	none showed strong decreases in viability	–	–
CC[C@]1(O)C[C@@H]2CN(CCc3c([nH]c4ccccc34)[C@@](C(=O)OC)(c3cc4c(cc3OC)N(C)[C@H]3[C@@](O)(C(=O)OC)[C@H](OC(C)=O)[C@]5(CC)C=CCN6CC[C@]43[C@@H]65)C2)C1 [vinblastine]	none showed strong decreases in viability	–	–
C[C@@](Cc1ccc(O)c(O)c1)(NN)C(=O)O [carbidopa]	none showed strong decreases in viability	–	–
CC(C)COCC(CN(Cc1ccccc1)c1ccccc1)N1CCCC1 (stereo not shown) [bepridil]	none showed strong decreases in viability	–	–
CC(=O)OC[C@H]1O[C@@H]([S-])[C@H](OC(C)=O)[C@@H](OC(C)=O)[C@@H]1OC(C)=O.CCP(CC)CC.[Au+] [auranofin]	–	–	PI/FDA staining of schistosomula by epifluorescent microscopy ([3]; 1 μM auranofin): displayed cells that were stained with either PI or FDA throughout the body; death confirmed by microscopic examination of schistosomula ([3]; 10 μM): 100%; lethality to schistosomula estimated by light microscopy [4]: 100%; auranofin-mediated mortality compared to vehicle treated (DMSO) or untreated parasites ([5]; 5 μM, 2.5 μM and 1.25 μM, 24 hr): Statistically-significant; anti-schistosomula effect (viability per drug concentration) ([5]; 24 hours post-treatment): clear and titratable anti-schistosomula effect; anti-schistosomula LD50 activity ([5]; auranofin titration series, fluorescent-based microtiter plate quantification, 24 hr): 0.82 µM
